Laboratory results taken from paper PMC10647589, “Heterogeneous Cellular Response of Primary and Metastatic Human Gastric Adenocarcinoma Cell Lines to Magnoflorine and Its Additive Interaction with Docetaxel” (International Journal of Molecular Sciences, 2023).

Tests used:
Assay in all cases: MTT assay (viability; isobolographic analysis)
Format in all cases: cell-based
[1] = system: ACC-201 human GC cells; settings: ACC-201, 72 h incubation, mean ± SEM
Method: (§1) The human GC cells ACC-201, AGS, MKN-74 and NCI-N87 were placed in 96-well plates and allowed to adhere overnight. On the following day, the growth medium was removed, and the cells were treated with a series of tested MGN and DCT dilutions (2.0–75 and 0.0004–0.0404 µg/mL, respectively) for 72 h at 37 °C. […] Subsequently, a solution of MTT (5 mg/mL) was added to each well, and the cells were further incubated for 3 h at 37 °C. Tetrazolium salt was reduced to violet formazan derivatives via the succinate dehydrogenase of metabolically active cells. Insoluble formazan compounds formed inside the cells were extracted with a sodium dodecyl sulfate buffer (10% SDS in 0.01 N HCl) overnight to achieve a quantitative assessment of the amount produced. The absorbance of the samples was measured at 570 nm using Infinite M200 Pro microplate reader (Tecan, Männedorf, Switzerland). Cell viability was presented as a percentage relative to the untreated control cells.
(§2) Interactions between MGN and DCT analyzed after 72 h in four different GC cell lines (ACC-201, AGS, MKN-74 and NCI-N87) were characterized by means of an isobolographic analysis in the MTT assay. The percentage inhibition of cell viability accompanied by the specific concentrations of the tested substances (MGN and DCT) were transferred to the MS Excel spreadsheet, and the data were computed using the log–probit method. Next, the concentration–response effect graphs for the tested drugs (MGN and DCT) were drawn, and the IC50 values for every tested drug were calculated. The cooperative effect of two concentration–response lines was tested for the MGN and DCT combination, as previously described. The calculations of IC50 values (±SEM) were computed with formulas originally derived from the log–probit method and adapted to the in vitro conditions, as described earlier. The concentration–response lines for MGN and DCT were not parallel, and thus, the isobolographic additivity was illustrated graphically as an area bounded by two (upper and lower) lines of additivity. From the experimentally denoted IC50 values for MGN and DCT in the MTT assay, median additive inhibitory concentrations (IC50add) for the mixture (at the fixed ratio of 1:1 of MGN and DCT) in various cell lines (ACC-201, AGS, MKN-74 and NCI-N87) were calculated, as described previously. More information on isobolographic analysis can be found in the literature.

[2] = system: AGS human GC cells; settings: 72 h incubation, mean ± SEM
Method: as §1, §2

[3] = system: NCI-N87 human GC cells; settings: NCI-N87, 72 h incubation, mean ± SEM
Method: as §1, §2

[4] = system: MKN-74 human GC cells; settings: MKN-74, 72 h incubation, mean ± SEM
Method: as §1, §2

For `CC(=O)O[C@@]12CO[C@@H]1C[C@H](O)[C@@]1(C)C(=O)[C@H](O)C3=C(C)[C@@H](OC(=O)[C@H](O)[C@@H](NC(=O)OC(C)(C)C)c4ccccc4)C[C@@](O)([C@@H](OC(=O)c4ccccc4)[C@H]21)C3(C)C` [DCT, docetaxel], the IC50 [1] was 2.8 ± 0.9 ng/mL, the IC50 [2] was 2.6 ± 1.2 ng/mL and the IC50 [3] was 9 ± 2.9 ng/mL. It also gave an IC50 [4] of 4.9 ± 2.1 ng/mL.
